# Earlier results as cited in patent US11022607B2, “Compound-carrier systems for assays in nematodes” (Assistance Publique—Hôpitaux de Paris, priority 2013, dated 2021).
# System: C. elegans
# Settings: 25 ml of liposomes containing 50 mg of uranin; in 3 h
structure (smiles),measurement,value
O=C([O-])c1ccccc1-c1c2ccc(=O)cc-2oc2cc([O-])ccc12.[Na+].[Na+] [uranin],"amount of fluorescent dye absorption, compared with worms administered dye by conventional methods",100 fold
